# According to patent publication US20260069728A1, “MULTI-TARGETING COMPOUND AND USE THEREOF” (Chengdu Shetai Medical Technology Co., Ltd., priority 2023, published 2026):
# Like-named read-outs stand apart in the source and are kept apart here.
# Columns and labels:
# [1] = tested on: HUTU-80 human duodenal adenocarcinoma cell line; experiment: Cell saturation binding assay, HUTU-80; conditions: 68Ga-labeled compound
# Description: (1) For the cell saturation binding assay, a total of 8 radiolabeled ligand concentrations were set at intervals within the anticipated range. For each concentration, there were 3 groups: the non-inhibition group, the first single inhibition group (FAP single inhibition group), and the second single inhibition group (CXCR4/GRPR/αvβ3 single inhibition group). For each concentration and each group, 3 replicate wells were established.
# (§1) (2) Cells were plated into a 24-well plate according to the cell plating procedure described above.
# (3) The original culture medium was removed from the 24-well plate. Then, 400 μL of 100 mg/mL skimmed milk solution was added to each well for blocking for one hour. After removing the skimmed milk solution, each of wells was washed three times by adding 400 μL of PBS solution. Subsequently, 146 μL of FBS-free medium was added to each well. Next, the non-inhibition group received 4 μL of cold PBS per well, while the first single inhibition group and the second single inhibition group received the following additions per well according to Table 4: 2 μL of non-radiolabeled first single inhibitor solution and 2 μL of cold PBS; 2 μL of non-radiolabeled second single inhibitor solution and 2 μL of cold PBS. The plate was then incubated at room temperature for one hour.
# (4) The ligands were radiolabeled with 68Ga using the labeling method described previously. Different volumes of FBS-free medium were added to formulate the radioligand systems at corresponding concentrations. Then, 50 μL of the corresponding concentration of the radioligand system was added to each well.
# (5) The supernatant was removed, and the wells were washed three times with 400 μL of PBS. 200 μL of IM NaOH solution was added to each well for cell lysis. […] Each well was washed once with 400 μL of PBS solution, and the washings were sequentially added to the corresponding radioimmunoassay tubes.
# (6) Radioactivity in the cells was measured using a γ counter. The equilibrium dissociation constant (KD) was obtained by fitting the curve using nonlinear regression analysis in GraphPad Prism software. KD is the drug concentration that causes half of the maximum effect (50% receptor occupancy).
# [2] = Isoelectric point (PI) measurement; assay type: physicochemical; conditions: unlabeled compound
# [3] = tested on: HUTU-80 human duodenal adenocarcinoma cell line; experiment: Cell uptake and inhibition assay, HUTU-80; assay type: cell-based
# Description: The cell lines involved in the cell experiments in the test examples include: SUM149PT human breast cancer cell line, HUTU-80 human duodenal adenocarcinoma cell line, and U-118 MG human brain astrocytoma/glioblastoma cell line.
# HUTU-80: Complete medium was formulated using DMEM high-glucose medium, 10% FBS, and a penicillin-streptomycin solution. The cells were cultured in a constant temperature incubator at 37° C. with 5% CO2. The culture medium was regularly replaced, and the cells were passaged. The culture medium was generally changed every 2 to 3 days. The growth of the tumor cells was observed daily under a microscope, including monitoring cell growth status, checking for adherence, examining cell morphology for any abnormalities, checking for contamination, and observing medium color for any abnormalities. Cells were passaged when they reached 80-90% confluence.
# When cell confluence in the culture flask reached 80%, the cells were digested and centrifuged, and the supernatant was removed. An appropriate amount of medium was added to dilute so that each well contained 500 μL of medium for plating. After thorough mixing by pipetting, the cell suspension was seeded into a 24-well plate at a density of 5×10^5 cells per well. The plate was then placed into the incubator for continued growth. The cells were ready for cellular experiments when they reached 80% confluence.
# (1) The cell uptake assay established four incubation time points: 15, 30, 60, and 120 minutes, respectively. For each time point, four groups were set up: non-inhibition group, a first single inhibition group (FAP single inhibition), a second single inhibition group (CXCR4/GRPR/αvβ3 single inhibition), and a dual inhibition group (FAP inhibitor+CXCR4/GRPR/αvβ3 inhibitor). Each group at each time point was set up with 3 triplicate wells.
# as §1
# (3) The original culture medium was removed from the 24-well plate. Then, 400 μL of 100 mg/mL skimmed milk solution was added to each well for blocking for one hour. After removing the skimmed milk solution, each of the wells was washed three times by adding 400 μL of PBS solution. Subsequently, 146 μL of FBS-free medium was added to each well. […]
# (6) The radioactivity in the cells was measured using a γ counter. […]
structure (smiles),measurement,setting,value
CC(C)CC(CC(C)C)NC(=O)[C@H](Cc1cnc[nH]1)NC(=O)CNC(=O)C(NC(=O)[C@H](C)NC(=O)[C@H](Cc1c[nH]c2ccccc12)NC(=O)[C@H](CCC(N)=O)NC(=O)[C@@H](Cc1ccccc1)NC(=O)COCC(=O)Nc1ccc(CNC(=O)COCCOCCNC(=O)COCCOCCNC(=O)[C@H](CCCCNC(=O)CN2CCN(CC(=O)O)CCN(CC(=O)O)CCN(CC(=O)O)CC2)NC(=O)CCC(=O)N2CCN(CCCOc3ccc4nccc(C(=O)NCC(=O)N5CC(F)(F)C[C@H]5C#N)c4c3)CC2)cc1)C(C)C (stereo partly drawn) [SDYD03],KD values / binding affinity to the receptors (in words),[1],relatively low KD values
same,Kd,"[1]; BBN solution (GRPR inhibitor), read-out: KD value, Second single inhibition group (CXCR4/GRPR/αvβ3 single inhibition)",1.76 ± 0.224 nM
same,Kd,"[1]; FAPI-04 solution, read-out: KD value, First single inhibition group (FAP single inhibition)",0.884 ± 0.152 nM
same,Kd,"[1]; read-out: KD value, Non-inhibition group",1.23 ± 0.331 nM
same,PI range of series of peaks,[2],5.992-7.095
same,cell uptake over incubation time (in words),[3]; 15-120 minutes,increased slowly and reached a plateau from 15 to 120 minutes
same,"cell uptake, comparison of non-inhibition, FAP single, GRPR single and dual inhibition groups (in words)",[3]; FAPI-04 and BBN as inhibitors,cell uptake in the non-inhibition group was consistently higher than that in the other three groups
same,"inhibition rate, comparison of inhibition groups (in words)",[3]; FAPI-04 and BBN as inhibitors,inhibition rate of the dual inhibition group was higher than that of the FAP single inhibition group and the GRPR single inhibition group
same,specific binding to FAP and GRPR (in words),[3]; conclusion from inhibition groups,can specifically bind to both FAP and GRPR
